Among the data in patent US20240383901A1, “SUBSTITUTED PYRROLO[2,3-D]PYRIMIDINES, THEIR PREPARATION AND THEIR THERAPEUTIC APPLICATION” (SANOFI, priority 2021, published 2024) are IC50 values, retold here.

As usually defined, the IC50 is the concentration that inhibits the measured activity by half. High values mean weaker potency, low ones greater potency.

What all share (type): biochemical
For experiment [1], the target named is LRRK2 (Homo sapiens, UniProt Q5S007). Description: LRRK2 WT assay (Assay B, radiometric 33P-ATP filter binding). The conditions noted are these: Assay B (values marked *). The method, then:
LRRK2(human) is incubated with 50 mM HEPES pH 8.0, 0.2 mM EDTA, 0.01% Brij-35, 1% (w/v) BSA, 5 mM DTT, 250 Mm […], 10 mM Magnesium acetate and [[…]]-ATP (specific activity and concentration as required).
The reaction is initiated by the addition of the Mg/ATP mix.

The target in experiment [2] is T1, full-length LRRK2 G2019S (Homo sapiens, UniProt Q5S007, G2019S).
T1 construct: DYKDDDDK (FLAG)
Description: LRRK2-G2019S kinase activity assay (Lanthascreen TR-FRET). The conditions noted are these: 1.1 mM ATP.

In experiment [3] the target is T2, full-length LRRK2 wild type (Homo sapiens, UniProt Q5S007).
T2 construct: DYDDDDK tagged full-length LRRK2 wild type is used
Description: LRRK2 WT assay (Assay A, Lanthascreen TR-FRET, 500 uM ATP). The conditions noted are these: Assay A (values without *). A general note: In TR-FRET formats the signal depends on donor and acceptor labels being close together.

Molecules are shown by their SMILES.

T2 sequence (Q5S007 whole entry): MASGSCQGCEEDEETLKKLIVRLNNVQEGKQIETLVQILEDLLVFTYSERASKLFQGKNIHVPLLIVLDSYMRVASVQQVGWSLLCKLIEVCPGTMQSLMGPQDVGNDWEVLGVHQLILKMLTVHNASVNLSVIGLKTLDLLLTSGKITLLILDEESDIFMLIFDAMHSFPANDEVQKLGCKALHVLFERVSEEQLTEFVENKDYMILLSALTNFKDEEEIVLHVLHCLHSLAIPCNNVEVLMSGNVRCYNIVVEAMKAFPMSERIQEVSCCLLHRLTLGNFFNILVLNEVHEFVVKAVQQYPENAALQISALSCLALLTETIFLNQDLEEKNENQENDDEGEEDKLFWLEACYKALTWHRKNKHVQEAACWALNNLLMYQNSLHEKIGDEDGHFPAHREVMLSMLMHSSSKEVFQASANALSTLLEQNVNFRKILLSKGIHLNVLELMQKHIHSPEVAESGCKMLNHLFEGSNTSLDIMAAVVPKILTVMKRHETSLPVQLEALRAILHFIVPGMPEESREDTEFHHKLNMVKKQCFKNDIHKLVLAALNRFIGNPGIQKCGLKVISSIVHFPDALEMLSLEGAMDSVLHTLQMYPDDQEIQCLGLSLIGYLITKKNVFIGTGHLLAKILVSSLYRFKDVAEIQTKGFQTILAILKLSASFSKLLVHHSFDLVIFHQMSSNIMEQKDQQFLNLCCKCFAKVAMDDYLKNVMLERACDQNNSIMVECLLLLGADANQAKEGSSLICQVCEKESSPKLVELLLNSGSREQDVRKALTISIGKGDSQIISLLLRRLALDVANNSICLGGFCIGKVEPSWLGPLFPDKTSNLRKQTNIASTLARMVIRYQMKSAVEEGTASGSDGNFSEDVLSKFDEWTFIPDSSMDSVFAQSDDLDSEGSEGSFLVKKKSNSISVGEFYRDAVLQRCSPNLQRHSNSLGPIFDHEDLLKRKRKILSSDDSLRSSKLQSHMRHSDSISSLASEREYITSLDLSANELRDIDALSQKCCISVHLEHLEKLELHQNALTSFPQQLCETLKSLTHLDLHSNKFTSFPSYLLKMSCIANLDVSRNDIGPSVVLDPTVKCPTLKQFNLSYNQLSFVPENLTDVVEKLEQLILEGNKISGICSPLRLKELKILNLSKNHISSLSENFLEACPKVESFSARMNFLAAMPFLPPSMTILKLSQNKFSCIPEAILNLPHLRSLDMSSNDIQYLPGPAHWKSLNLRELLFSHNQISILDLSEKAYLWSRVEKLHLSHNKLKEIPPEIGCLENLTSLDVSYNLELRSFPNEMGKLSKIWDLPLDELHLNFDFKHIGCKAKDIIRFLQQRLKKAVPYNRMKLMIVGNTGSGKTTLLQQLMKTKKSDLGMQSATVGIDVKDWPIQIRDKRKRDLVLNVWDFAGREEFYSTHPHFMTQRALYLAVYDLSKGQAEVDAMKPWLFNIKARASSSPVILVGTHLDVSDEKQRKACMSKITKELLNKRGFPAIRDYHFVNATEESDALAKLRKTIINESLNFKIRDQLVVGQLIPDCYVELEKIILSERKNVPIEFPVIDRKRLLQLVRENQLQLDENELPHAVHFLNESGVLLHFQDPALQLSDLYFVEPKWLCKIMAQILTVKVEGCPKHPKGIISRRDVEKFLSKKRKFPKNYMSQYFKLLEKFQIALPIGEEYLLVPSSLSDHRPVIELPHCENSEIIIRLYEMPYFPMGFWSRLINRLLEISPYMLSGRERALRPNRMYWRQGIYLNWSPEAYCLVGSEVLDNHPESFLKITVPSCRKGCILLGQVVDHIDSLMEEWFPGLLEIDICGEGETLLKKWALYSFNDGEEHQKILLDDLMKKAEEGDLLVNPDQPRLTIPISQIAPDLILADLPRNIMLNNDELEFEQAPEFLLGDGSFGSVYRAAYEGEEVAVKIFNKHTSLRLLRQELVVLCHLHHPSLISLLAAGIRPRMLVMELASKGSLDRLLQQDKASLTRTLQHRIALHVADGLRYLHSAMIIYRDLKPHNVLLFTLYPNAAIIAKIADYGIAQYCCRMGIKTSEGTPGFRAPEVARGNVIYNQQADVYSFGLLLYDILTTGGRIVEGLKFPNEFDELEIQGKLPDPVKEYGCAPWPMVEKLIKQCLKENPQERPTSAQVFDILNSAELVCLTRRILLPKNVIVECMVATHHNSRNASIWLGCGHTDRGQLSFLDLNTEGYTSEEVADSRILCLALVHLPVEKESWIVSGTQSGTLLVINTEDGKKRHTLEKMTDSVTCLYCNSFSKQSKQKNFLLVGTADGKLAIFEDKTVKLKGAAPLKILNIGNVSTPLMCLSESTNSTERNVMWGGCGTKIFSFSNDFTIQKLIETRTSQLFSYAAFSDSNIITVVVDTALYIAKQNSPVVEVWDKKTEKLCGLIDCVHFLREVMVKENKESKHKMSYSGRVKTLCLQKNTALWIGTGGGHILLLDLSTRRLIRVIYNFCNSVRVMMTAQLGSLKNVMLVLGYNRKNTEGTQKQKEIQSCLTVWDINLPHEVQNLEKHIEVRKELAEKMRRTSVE
Sequence of LRRK2 (Q5S007 whole entry): as above
T1 sequence (Q5S007 whole entry G2019S): as the sequence (Q5S007 whole entry) above, with G2019S counted along it

Turning to `Cn1cc(Nc2ncc3cc(C#N)n(C4CCOC4)c3n2)c(OC2COC2)n1` (single isomer, unassigned) [Example 52, 2-((1-methyl-3-(oxetan-3-yloxy)-1 H-pyrazol-4-yl)amino)-7-(tetrahydrofuran-3-yl)-7H-pyrrolo[2,3-d]pyrimidine-6-carbonitrile], the IC50 in experiment [1] is 26 nM.

Take `Cn1cc(Nc2ncc3cc(C#N)n(C4CCCOC4)c3n2)c(OC2COC2)n1` (single isomer, unassigned) [Example 82, 2-((1-methyl-3-(oxetan-3-yloxy)-1 H-pyrazol-4-yl)amino)-7-(tetrahydro-2H-pyran-3-yl)-7H-pyrrolo[2,3-d]pyrimidine-6-carbonitrile]: the IC50 in experiment [1] turned out to be 104 nM.

Take `CO[C@H]1COC[C@H]1n1c(C#N)cc2cnc(Nc3cn(C)nc3OC(C)C)nc21` [Example 62, 2-((3-Isopropoxy-1-methyl-1H-pyrazol-4-yl)amino)-7-((3R,4R)-4-methoxytetrahydrofuran-3-yl)-7H-pyrrolo[2,3-d]pyrimidine-6-carbonitrile]: in experiment [1], the IC50 is 114 nM.

Consider `CO[C@H]1COC[C@H]1n1c(C#N)cc2cnc(Nc3cn(C4COC4)nc3OC3CC3)nc21` [Example 64, 2-((3-Cyclopropoxy-1-(oxetan-3-yl)-1H-pyrazol-4-yl)amino)-7-((3R,4R)-4-methoxytetrahydrofuran-3-yl)-7H-pyrrolo[2,3-d]pyrimidine-6-carbonitrile], for which the IC50 in experiment [1] turned out to be 135 nM.

Consider `CO[C@H]1COC[C@H]1n1c(C#N)cc2cnc(Nc3ccc(C(C)(C)O)cc3OC3COC3)nc21` [Example 55, 2-((4-(2-Hydroxypropan-2-yl)-2-(oxetan-3-yloxy)phenyl)amino)-7-((3R,4R)-4-methoxytetrahydrofuran-3-yl)-7H-pyrrolo[2,3-d]pyrimidine-6-carbonitrile], for which the 50% inhibitory concentration (IC50) in experiment [2] is 18 nM; in experiment [3] it was 41 nM.

On to `COC[C@H](C)n1c(C#N)cc2cnc(Nc3cn(C)nc3O[C@@H]3CO[C@H]3C)nc21` (single isomer, unassigned) [Example 88], for which the IC50 was 12 nM in experiment [2] and 20 nM in experiment [3].

Consider `CC(C)Oc1nn(C)cc1Nc1ncc2cc(C#N)n([C@@H]3CO[C@H]3C)c2n1` (single isomer, unassigned) [Example 78, 7-[(trans)-2-methyloxetan-3-yl]-2-[(1-methyl-3-propan-2-yloxypyrazol-4-yl)amino]pyrrolo[2,3-d]pyrimidine-6-carbonitrile], for which the IC50 came out at 64 nM in experiment [2] and 79 nM in experiment [3].

`C[C@H]1COC[C@@H]1n1c(C#N)cc2cnc(Nc3cn(C4CC4)nc3OC3COC3)nc21` [Example 37, 2-((1-Cyclopropyl-3-(oxetan-3-yloxy)-1H-pyrazol-4-yl)amino)-7-((3R,4R)-4-methyltetrahydrofuran-3-yl)-7H-pyrrolo[2,3-d]pyrimidine-6-carbonitrile]: the IC50 in experiment [2] came out at 6 nM; in experiment [3], 8 nM.

With `CC(C)Oc1nn(C)cc1Nc1ncc2cc(C#N)n([C@H]3COC[C@@H]3C)c2n1` [Example 26, 2-((3-Isopropoxy-1-methyl-1H-pyrazol-4-yl)amino)-7-((3R,4R)-4-methyltetrahydrofuran-3-yl)-7H-pyrrolo[2,3-d]pyrimidine-6-carbonitrile], the IC50 in experiment [2] and in experiment [3] was 1 nM each time.

Take `CC(Oc1nn(C)cc1Nc1ncc2cc(C#N)n([C@H]3COC[C@@H]3C)c2n1)C(F)(F)F` (single isomer, unassigned) [Example 22]: the figures for the concentration for half-maximal inhibition (IC50) in experiment [2] and in experiment [3] were 25 nM and 30 nM, respectively.

Regarding `C[C@@H]1OC[C@H]1Oc1nn(C)cc1Nc1ncc2cc(C#N)n([C@H]3COC[C@@H]3C)c2n1` (single isomer, unassigned) [Example 7], the IC50 in experiment [2] and in experiment [3] was 2 nM each time.

Take `CC(Oc1nn(C2COC2)cc1Nc1ncc2cc(C#N)n([C@H]3COC[C@@H]3C)c2n1)C(F)(F)F` (single isomer, unassigned) [Example 11]: the IC50 in experiment [2] amounted to 19 nM; in experiment [3] it was 27 nM.

As for `CC(CO)n1cc(Nc2ncc3cc(C#N)n([C@H]4COC[C@@H]4C)c3n2)c(OC2COC2)n1` (stereo partly drawn) [Example 9, 2-[[1-[2-Hydroxy-1-methyl-ethyl]-3-(oxetan-3-yloxy)pyrazol-4-yl]amino]-7-[(3R,4R)-4-methyltetrahydrofuran-3-yl]pyrrolo[2,3-d]pyrimidine-6-carbonitrile], the IC50 in experiment [2] and in experiment [3] was 5 nM in each case.

Turning to `[2H]C([2H])([2H])n1cc(Nc2ncc3cc(C#N)n([C@@H](C)COC)c3n2)c(OC2CC(O)C2(C)C)n1` (single isomer, unassigned) [Example 135], the IC50 is 39 nM in experiment [2] and 43 nM in experiment [3].

Take `[2H]C([2H])([2H])n1cc(Nc2ncc3cc(C#N)n([C@H]4COC[C@@H]4C)c3n2)c(OC2COC2)n1` [Example 19, 2-((1-(Methyl-d3)-3-(oxetan-3-yloxy)-1 H-pyrazol-4-yl)amino)-7-((3R,4R)-4-methyltetrahydrofuran-3-yl)-7H-pyrrolo[2,3-d]pyrimidine-6-carbonitrile]: the IC50 in experiment [2] and in experiment [3] was 5 nM in each case.

Regarding `CC(C(F)F)n1cc(Nc2ncc3cc(C#N)n([C@H]4COC[C@@H]4C)c3n2)c(OC2COC2)n1` (single isomer, unassigned) [Example 5], the results for the IC50 in experiment [2] and in experiment [3] were 5 nM and 4 nM, respectively.

Regarding `[2H]C([2H])([2H])n1cc(Nc2ncc3cc(C#N)n([C@@H](C)COC)c3n2)c(O[C@@H]2CO[C@H]2C)n1` (single isomer, unassigned) [Example 90], the IC50 in experiment [2] was 8 nM; in experiment [3], 16 nM.

In the case of `CC(C)Oc1nn(C(C)(C)C#N)cc1Nc1ncc2cc(C#N)n([C@H]3COC[C@@H]3C)c2n1` [Example 29, 2-((1-(2-Cyanopropan-2-yl)-3-isopropoxy-1H-pyrazol-4-yl)amino)-7-((3R,4R)-4-methyltetrahydrofuran-3-yl)-7H-pyrrolo[2,3-d]pyrimidine-6-carbonitrile], the IC50 in experiment [2] and in experiment [3] was 1 nM in each case.

With `[2H]C([2H])([2H])n1cc(Nc2ncc3cc(C#N)n([C@H]4COC[C@@H]4C)c3n2)c(O[C@H]2CO[C@H]2C)n1` (single isomer, unassigned) [Example 23], the values for the IC50 in experiment [2] and in experiment [3] were 8 nM and 10 nM, respectively.

For the molecule `CO[C@@H]1COC[C@H]1n1c(C#N)cc2cnc(Nc3ccc(C(C)(C)O)cc3OC3COC3)nc21` (racemic) [Example 71, 2-((4-(2-hydroxypropan-2-yl)-2-(oxetan-3-yloxy)phenyl)amino)-7-((trans)-4-methoxytetrahydrofuran-3-yl)-7H-pyrrolo[2,3-d]pyrimidine-6-carbonitrile], the IC50 in experiment [2] worked out at 69 nM; in experiment [3], 109 nM.

Regarding `[2H]C([2H])([2H])n1cc(Nc2ncc3cc(C#N)n(C4CCOCC4)c3n2)c(OC2COC2(C)C)n1` (single isomer, unassigned) [Example 121, 2-((3-((2,2-dimethyloxetan-3-yl)oxy)-1-(methyl-d3)-1 H-pyrazol-4-yl)amino)-7-(tetrahydro-2H-pyran-4-yl)-7H-pyrrolo[2,3-d]pyrimidine-6-carbonitrile], the IC50 in experiment [2] is 181 nM; in experiment [3], 133 nM.

For the molecule `C[C@H]1COC[C@@H]1n1c(C#N)cc2cnc(Nc3ccc(C(C)(C)O)cc3OC3COC3)nc21` [Example 20, 2-((4-(2-Hydroxypropan-2-yl)-2-(oxetan-3-yloxy)phenyl)amino)-7-((3R,4R)-4-methyltetrahydrofuran-3-yl)-7H-pyrrolo[2,3-d]pyrimidine-6-carbonitrile], the IC50 in experiment [2] and in experiment [3] was 3 nM in each case.

For the molecule `C[C@H]1COC[C@H]1n1c(C#N)cc2cnc(Nc3cn(C)nc3OC3COC3)nc21` (single isomer, unassigned) [Example 46, 2-((1-methyl-3-(oxetan-3-yloxy)-1 H-pyrazol-4-yl)amino)-7-((cis)-4-methyltetrahydrofuran-3-yl)-7H-pyrrolo[2,3-d]pyrimidine-6-carbonitrile], the IC50 came to 413 nM in experiment [2] and 489 nM in experiment [3].

In the case of `CO[C@H]1COC[C@H]1n1c(C#N)cc2cnc(Nc3cn(C4COC4)nc3OC(C)C(F)(F)F)nc21` (mixture of isomers) [Example 54, 7-((3R,4R)-4-Methoxytetrahydrofuran-3-yl)-2-((1-(oxetan-3-yl)-3-((1,1,1-trifluoropropan-2-yl)oxy)-1 H-pyrazol-4-yl)amino)-7H-pyrrolo[2,3-d]pyrimidine-6-carbonitrile], the IC50 in experiment [2] came out at 27 nM; in experiment [3], 61 nM.

On to `[2H]C([2H])([2H])n1cc(Nc2ncc3cc(C#N)n(C4COCC4C)c3n2)c(OC2CCC2(C)O)n1` (mixture of isomers) [Example 142, 2-((3-((1S,2S)-2-hydroxy-2-methylcyclobutoxy)-1-(methyl-d3)-1 H-pyrazol-4-yl)amino)-7-((3R,4R)-4-methyltetrahydrofuran-3-yl)-7H-pyrrolo[2,3-d]pyrimidine-6-carbonitrile and 2-((3-((1 R,2R)-2-hydroxy-2-methylcyclobutoxy)-1-(methyl-d3)-1 H-pyrazol-4-yl)amino)-7-((3R,4R)-4-methyltetrahydrofuran-3-yl)-7H-pyrrolo[2,3-d]pyrimidine-6-carbonitrile], for which the figures for the IC50 in experiment [2] and in experiment [3] were 5 nM and 3 nM, respectively.

Regarding `[2H]C([2H])([2H])n1cc(Nc2ncc3cc(C#N)n([C@@H](C)COC)c3n2)c(OC2COC2)n1` [Example 91, 7-[(2S)-1-Methoxypropan-2-yl]-2-[[3-(oxetan-3-yloxy)-1-(methyl-d3)pyrazol-4-yl]amino]pyrrolo[2,3-d]pyrimidine-6-carbonitrile], the IC50 in experiment [2] stood at 7 nM; in experiment [3], 13 nM.
